ChEMBL document CHEMBL3885861, “Open TG-GATES”

Species on record: Rattus norvegicus
Experiment: Open TG-GATES - Regimen: Daily Repeat
Type: toxicity, organism-based, Sprague-Dawley
Parameters: regimen Daily Repeat, gender Male, age 6 weeks
Settings: in vivo, po, route gavage; for APTT / Bas / Eos / Fbg / Hb / Ht / Lym / MCH / MCHC / MCV / Mono / Neu / PT / Plat / RBC / Ret / WBC: tissue Blood; for LIVER: tissue Liver; for A/G / ALP / ALT / AST / BUN / CRE / Ca / Cl / DBIL / GLC / IP / K / LDH / Na / PL / RALB / TBIL / TC / TG / TP / gamma-GTP: tissue Plasma
[1] = 0 mg/kg, 72 h, dose level Control, time 3 day
[2] = 0 mg/kg, […], dose level Control, time 7 day
[3] = 0 mg/kg, […], dose level Control, time 14 day
[4] = 0 mg/kg, […], dose level Control, time 28 day
[5] = 6 mg/kg, 72 h, dose level Low, time 3 day
[6] = 6 mg/kg, […], dose level Low, time 7 day
[7] = 6 mg/kg, […], dose level Low, time 14 day
[8] = 6 mg/kg, […], dose level Low, time 28 day

## O=[N+]([O-])c1ccc(O)c([N+](=O)[O-])c1 [2,4-DINITROPHENOL]
[1]
  TERMINAL_BW: 246.4 g
  APTT: 16.7 s
  Bas: 0%
  Eos: 1.2%
  Fbg: 265 mg/dL
  Hb: 12.8 g/dL
  Ht: 38.3%
  Lym: 74.4%
  MCH: 21.4 pg
  MCHC: 33.5%
  MCV: 64 fL
  Mono: 4.8%
  Neu: 19.8%
  PT: 11.6 s
  Plat: 131.4 x10_4/uL
  RBC: 599.4 x10_4/ul
  Ret: 6%
  WBC: 119.4 x10_2/uL
  LIVER: 11.9 g
  A/G: 2.3
  ALP: 1481 IU/L
  ALT: 33.8 IU/L
  AST: 62.6 IU/L
  BUN: 15.6 mg/dL
  CRE: 0.4 mg/dL
  Ca: 11.6 mg/dL
  Cl: 103.2 meq/L
  DBIL: 0.01 mg/dL
  GLC: 183 mg/dL
  IP: 7.4 mg/dL
  K: 4.7 meq/L
  LDH: 91.6 IU/L
  Na: 138.2 meq/L
  PL: 156.2 mg/dL
  RALB: 3.9 g/dL
  TBIL: 0.034 mg/dL
  TC: 84.2 mg/dL
  TG: 137 mg/dL
  TP: 5.6 g/dL
  gamma-GTP: 0.8 IU/L
[2]
  TERMINAL_BW: 271.5 g
  APTT: 16 s
  Bas: 0%
  Eos: 1%
  Fbg: 247 mg/dL
  Hb: 13.5 g/dL
  Ht: 39.8%
  Lym: 77.2%
  MCH: 21.5 pg
  MCHC: 33.9%
  MCV: 63.4 fL
  Mono: 5%
  Neu: 16.8%
  PT: 11.6 s
  Plat: 133.8 x10_4/uL
  RBC: 629 x10_4/ul
  Ret: 5%
  WBC: 101.8 x10_2/uL
  LIVER: 13.1 g
  A/G: 2.2
  ALP: 1556.6 IU/L
  ALT: 38.6 IU/L
  AST: 68.8 IU/L
  BUN: 18.2 mg/dL
  CRE: 0.4 mg/dL
  Ca: 11.4 mg/dL
  Cl: 105.8 meq/L
  DBIL: 0.014 mg/dL
  GLC: 182.2 mg/dL
  IP: 7.7 mg/dL
  K: 4.7 meq/L
  LDH: 107 IU/L
  Na: 141.2 meq/L
  PL: 154.8 mg/dL
  RALB: 3.8 g/dL
  TBIL: 0.028 mg/dL
  TC: 80 mg/dL
  TG: 162.4 mg/dL
  TP: 5.5 g/dL
  gamma-GTP: 0.8 IU/L
[3]
  TERMINAL_BW: 341.5 g
  APTT: 16.5 s
  Bas: 0%
  Eos: 1%
  Fbg: 243.2 mg/dL
  Hb: 13.8 g/dL
  Ht: 40.7%
  Lym: 73%
  MCH: 20.9 pg
  MCHC: 33.9%
  MCV: 61.7 fL
  Mono: 5%
  Neu: 21%
  PT: 11.6 s
  Plat: 130 x10_4/uL
  RBC: 660.8 x10_4/ul
  Ret: 3.9%
  WBC: 124.2 x10_2/uL
  LIVER: 16.5 g
  A/G: 2
  ALP: 1126.4 IU/L
  ALT: 33.4 IU/L
  AST: 59.6 IU/L
  BUN: 18.4 mg/dL
  CRE: 0.3 mg/dL
  Ca: 11.4 mg/dL
  Cl: 104.2 meq/L
  DBIL: 0.012 mg/dL
  GLC: 186 mg/dL
  IP: 7.4 mg/dL
  K: 4.6 meq/L
  LDH: 101.6 IU/L
  Na: 136.8 meq/L
  PL: 151.4 mg/dL
  RALB: 4 g/dL
  TBIL: 0.024 mg/dL
  TC: 72.8 mg/dL
  TG: 182 mg/dL
  TP: 6 g/dL
  gamma-GTP: 0 IU/L
[4]
  TERMINAL_BW: 452.7 g
  APTT: 15.9 s
  Bas: 0%
  Eos: 1%
  Fbg: 278.4 mg/dL
  Hb: 14.8 g/dL
  Ht: 43.5%
  Lym: 78.4%
  MCH: 19.6 pg
  MCHC: 34%
  MCV: 57.7 fL
  Mono: 5.6%
  Neu: 15.4%
  PT: 11.6 s
  Plat: 117.2 x10_4/uL
  RBC: 754.6 x10_4/ul
  Ret: 2.8%
  WBC: 107.4 x10_2/uL
  LIVER: 19.9 g
  A/G: 1.8
  ALP: 930.8 IU/L
  ALT: 30.8 IU/L
  AST: 58.6 IU/L
  BUN: 20.2 mg/dL
  CRE: 0.5 mg/dL
  Ca: 11.2 mg/dL
  Cl: 103.4 meq/L
  DBIL: 0.016 mg/dL
  GLC: 195.4 mg/dL
  IP: 7.2 mg/dL
  K: 4.4 meq/L
  LDH: 108.8 IU/L
  Na: 140.6 meq/L
  PL: 161.6 mg/dL
  RALB: 4 g/dL
  TBIL: 0.036 mg/dL
  TC: 79.8 mg/dL
  TG: 228.8 mg/dL
  TP: 6.2 g/dL
  gamma-GTP: 0.4 IU/L
[5]
  TERMINAL_BW: 247 g
  APTT: 16.5 s
  Bas: 0%
  Eos: 1%
  Fbg: 280.8 mg/dL
  Hb: 13.5 g/dL
  Ht: 39.7%
  Lym: 70%
  MCH: 21.5 pg
  MCHC: 34%
  MCV: 63.2 fL
  Mono: 9.4%
  Neu: 19.4%
  PT: 11.4 s
  Plat: 143.8 x10_4/uL
  RBC: 628 x10_4/ul
  Ret: 6.1%
  WBC: 100 x10_2/uL
  LIVER: 12.5 g
  A/G: 2.3
  ALP: 1318.2 IU/L
  ALT: 36 IU/L
  AST: 61.6 IU/L
  BUN: 18.8 mg/dL
  CRE: 0.4 mg/dL
  Ca: 11.6 mg/dL
  Cl: 104.4 meq/L
  DBIL: 0.012 mg/dL
  GLC: 190 mg/dL
  IP: 7.9 mg/dL
  K: 4.9 meq/L
  LDH: 110.2 IU/L
  Na: 137.6 meq/L
  PL: 165.2 mg/dL
  RALB: 4 g/dL
  TBIL: 0.032 mg/dL
  TC: 89.2 mg/dL
  TG: 137.2 mg/dL
  TP: 5.7 g/dL
  gamma-GTP: 0.6 IU/L
[6]
  TERMINAL_BW: 282.7 g
  APTT: 16.4 s
  Bas: 0%
  Eos: 0.8%
  Fbg: 264.6 mg/dL
  Hb: 13.1 g/dL
  Ht: 38.6%
  Lym: 81.6%
  MCH: 21.3 pg
  MCHC: 33.9%
  MCV: 62.6 fL
  Mono: 4.2%
  Neu: 13.6%
  PT: 11.5 s
  Plat: 137.2 x10_4/uL
  RBC: 617.8 x10_4/ul
  Ret: 5.3%
  WBC: 117 x10_2/uL
  LIVER: 13.1 g
  A/G: 2.3
  ALP: 1599.8 IU/L
  ALT: 36.8 IU/L
  AST: 66 IU/L
  BUN: 17.6 mg/dL
  CRE: 0.3 mg/dL
  Ca: 11.4 mg/dL
  Cl: 104.8 meq/L
  DBIL: 0.012 mg/dL
  GLC: 188.2 mg/dL
  IP: 7.4 mg/dL
  K: 4.5 meq/L
  LDH: 115.4 IU/L
  Na: 140.8 meq/L
  PL: 138.6 mg/dL
  RALB: 3.9 g/dL
  TBIL: 0.03 mg/dL
  TC: 74.2 mg/dL
  TG: 121.8 mg/dL
  TP: 5.6 g/dL
  gamma-GTP: 1 IU/L
[7]
  TERMINAL_BW: 318.6 g
  APTT: 17.1 s
  Bas: 0%
  Eos: 1%
  Fbg: 255.8 mg/dL
  Hb: 14.1 g/dL
  Ht: 41.5%
  Lym: 76.4%
  MCH: 20.9 pg
  MCHC: 33.9%
  MCV: 61.7 fL
  Mono: 6.4%
  Neu: 16.4%
  PT: 11.8 s
  Plat: 119.2 x10_4/uL
  RBC: 671.8 x10_4/ul
  Ret: 3.9%
  WBC: 134.2 x10_2/uL
  LIVER: 13.9 g
  A/G: 2.1
  ALP: 1262 IU/L
  ALT: 34.8 IU/L
  AST: 66.2 IU/L
  BUN: 18.8 mg/dL
  CRE: 0.4 mg/dL
  Ca: 11.1 mg/dL
  Cl: 106.2 meq/L
  DBIL: 0.01 mg/dL
  GLC: 184.6 mg/dL
  IP: 6.8 mg/dL
  K: 4.7 meq/L
  LDH: 114.6 IU/L
  Na: 136.8 meq/L
  PL: 129.4 mg/dL
  RALB: 3.8 g/dL
  TBIL: 0.016 mg/dL
  TC: 62.4 mg/dL
  TG: 125.8 mg/dL
  TP: 5.7 g/dL
  gamma-GTP: 0 IU/L
[8]
  TERMINAL_BW: 445.6 g
  APTT: 16.5 s
  Bas: 0%
  Eos: 1.2%
  Fbg: 282.4 mg/dL
  Hb: 14.9 g/dL
  Ht: 43.9%
  Lym: 76.6%
  MCH: 19.6 pg
  MCHC: 33.9%
  MCV: 57.8 fL
  Mono: 5.6%
  Neu: 16.8%
  PT: 11.8 s
  Plat: 121.2 x10_4/uL
  RBC: 759.4 x10_4/ul
  Ret: 2.2%
  WBC: 117.4 x10_2/uL
  LIVER: 20 g
  A/G: 1.9
  ALP: 1091.6 IU/L
  ALT: 33 IU/L
  AST: 63.6 IU/L
  BUN: 20.2 mg/dL
  CRE: 0.5 mg/dL
  Ca: 11 mg/dL
  Cl: 105.2 meq/L
  DBIL: 0.01 mg/dL
  GLC: 203 mg/dL
  IP: 7.3 mg/dL
  K: 4.3 meq/L
  LDH: 144.4 IU/L
  Na: 140.6 meq/L
  PL: 150 mg/dL
  RALB: 3.9 g/dL
  TBIL: 0.03 mg/dL
  TC: 72.6 mg/dL
  TG: 199.8 mg/dL
  TP: 6 g/dL
  gamma-GTP: 0.8 IU/L
